# Entries after “also recorded” stand apart in the source; their conditions may differ.
# Legend:
# Format in all cases: in vivo, chickens (Gallus gallus)
# [1] = tested on: AMR genes in the cecum microbiome; test: AMR gene abundance analysis (AMR++ pipeline) of cecal microbiome; conditions: day 35 cecum
# Description: AMR gene abundances per sample were determined using the AMR++ pipeline (Lakin, S. M. et al., Nucleic Acids Res 45, D574-D580 (2017)) (v. 2.0.2) starting from the raw metagenomics sequences and using the MegaRes (v. 2.0.0) database. Only genes involved in drug resistance were considered. The AMR gene counts per sample obtained from AMR++ were expressed in unites of reads per kilobase per million reads (RPKM) based on the corresponding gene lengths from the MegaRes database. RPKM values across treatments were compared using the Mann-Whitney U test.
# cecal microbiome = test: Shotgun metagenomics (functional/taxonomic profiles, GSEA) of cecal microbiome, day 35 broilers; conditions: day 35 cecal samples
# Description: 74 frozen cecal samples from day 35 birds were sent to CosmosID (Rockville, MD) for shotgun metagenomics sequencing. DNA was extracted using the ZymoBIOMICS DNA Miniprep Kit (ZymoBIOMICS, Irvine, CA) according to the manufacturers protocol. The isolated DNA was quantified by Qbit (ThermoFisher, Coon Rapids, MN). DNA libraries were prepared using the Illumina Nextera XT library preparation kit (Illumina, San Diego, CA), with a modified protocol. Libraries were then sequenced on an Illumina HiSeq platform 2×150 bp.
# Reads were trimmed and Illumina adapters removed using Trimmomatic (v 0.39) (Bolger et al., Bioinformatics 30, 2114-2120 (2014)) with options SLIDINGWINDOW:5:20 LEADING:3 TRAILING:3. Host reads (Gallus gallus, GenBank assembly GCA_000002315) and spike-in reads from Vibrio harveyii (ATCC 14126) were removed using Bowtie2 (v. 2.3.5.1) (Langmead et al., Nat Methods 9, 357-359 (2012)).
# Taxonomic profiling of individual reads was carried out using Kaiju (v. 1.7.3) (Menzel et al., Nat Commun 7, 11257 (2016)) with the nr_euk database. Kaiju outputs were summarized for each read as the number of bases aligned to proteins in the reference database. In cases of individual reads mapping to more than one taxonomic group, the number of bases assigned to each taxon was calculated as the alignment length (in base pairs) multiplied by the fraction of bases assigned unambiguously to said taxon out of all the taxa to which the read mapped. The numbers of assigned bases per read were used to estimate species-level relative abundances using metametamerge (v. 1.1) (Piro, V. C., et al., Microbiome 5, 101 (2017).) taking into account the average coding length per species in the nr_euk database.
# Functional profiling was done by first assembling the reads from each sample into contigs using Spades (v. 3.13.1, option --meta) (Nurk, S. et al., Genome Res 27, 824-834 (2017)), with default parameters, followed by protein prediction with Prokka (v. 1.14.5) (Seemann, T. Prokka: Bioinformatics 30, 2068-2069 (2014).). Predicted protein sequences were aligned to a reference database and using Diamond (v. 0.9.30) (Buchfink, B. et al. Nat Methods 18, 366-368 (2021)) and annotated based on the function assigned to the top hit in the database. To avoid misannotations, (Plata, G. et al. Nat Chem Biol 8, 848-854 (2012)) the inventors only considered hits with at least 70% identity and 70% query coverage. The reference database was built starting from 46,181 complete bacterial genomes downloaded from the PATRIC (Davis, J. J. et al. Nucleic Acids Res 48, D606-D612 (2020)) database representing at most 10 genomes per species from ˜400 taxonomic families including those most frequently observed in broiler microbiomes. To speed up functional annotations, protein sequences within each family in the database were clustered at 90% sequence identity using CD-HIT (v. 4.8.1) (Huang, Y. et al. Bioinformatics 26, 680-682 (2010)) and the longest sequence from each cluster was kept for the diamond search.
# To quantify the abundance of each function per sample, reads were mapped to the corresponding contigs using BWA (v. 0.7.17) (Li, H. & Durbin, R. Bioinformatics 25, 1754-1760 (2009)), and reads mapping to each predicted protein were counted with HTseq (v. 0.11.3) (Anders, S. et al. Bioinformatics 31, 166-169 (2015)). Read counts per RAST functional role were TPM normalized based on the Prokka protein lengths (Zhao, S. et. al. RNA 26, 903-909 (2020)) and expressed in units of mean copy numbers per genome by calculating a normalization factor such that the median abundance of a set of universal-single copy bacterial genes (Creevey, C. J. et al. PLOS One 6, e22099 (2011)) was set to 1 (Manor, O. & Borenstein, E. Genome Biology 16, 53 (2015)). A similar procedure was used to produce a copy-number normalized matrix of functional roles across samples stratified by the bacterial genera of the protein hits used to transfer functional annotations. […]
# Ross 708 male broilers = test: Clinical study of in-feed AGPs in broilers: weight gain and feed conversion; conditions: in-feed: 50 g/ton BMD, 20 g/ton avilamycin, 16.5 g/ton virginiamycin, 70 g/ton narasin; 35 days
# From the text: 500 healthy Ross 708 male broilers sourced from a commercial hatchery were used in the experiment. […] Birds were individually tagged with a unique identifier and were randomly assigned to one of 25 floor pens (20 animals per pen). Groups of 5 pens were assigned to each of 5 different treatments. The 5 treatments included: 1) control birds fed least-cost diets as follows: A starter diet was fed from days 0 to 14 of the study, followed by a grower diet (14-28d) and a finisher diet (28-35d). 2) Birds fed the above diets supplemented with 50 g/ton BMD. 3) Supplemented with 20 g/ton avilamycin. 4) Supplemented with 16.5 g/ton Virginiamycin. And 5) supplemented with 70 g/ton narasin. Birds were raised for 35 days in a barn on top of used litter.
# Individual body weights were collected on days 0, 7, 21 and 35. Pen weights were collected on days 14 and 28. Feed weigh backs for each pen were done on days 7, 14, 21, 28 and 35 of the study. Average bird weights and feed intake per pen were used to calculate weekly values of average daily gain and feed conversion ratios. Weekly values were compared between treatments using the Mann Whitney U test. On days 7, 21 and 35 three birds per pen were randomly selected and euthanized for the collection of cecal contents and blood. Blood was collected via wing vein venipuncture, except for birds that were too small, in which cases direct heart puncture was used. In both cases, blood was collected into vacutainer tubes and centrifuged to obtain serum. Cecal samples were collected by aseptically squeezing the cecum content into a sterile tube. Cecal samples were placed on dry ice immediately after collection. All samples were stored at −80° C. until processing.
structure (smiles),measurement,setting,value
CC[C@@H](C(=O)O)[C@@H]1O[C@@H]([C@@H](C)[C@H](O)[C@H](C)C(=O)[C@H](CC)[C@H]2O[C@]3(C=C[C@@H](O)[C@]4(CC[C@@](C)([C@H]5CC[C@](O)(CC)[C@H](C)O5)O4)O3)[C@H](C)C[C@@H]2C)[C@@H](C)C[C@@H]1C [narasin],effect on AMR gene abundance profiles,[1],significantly different AMR gene abundance profiles
same,AMR gene classes changed compared to controls,[1]; Mann-Whitney U p-value<0.05,enriched for resistance to tetracyclines
same,total AMR gene abundance compared to control,[1]; RPKM,significant increase
same,functional processes depleted in cecal microbiome relative to controls (GSEA),cecal microbiome,"utilization of mucin polysaccharides as well as cell matrix components including sialic acid, N-acetylneuraminate and hyaluronic acid"
same,functional processes enriched in cecal microbiome relative to controls (GSEA),cecal microbiome,"propanediol utilization, molybdenum-containing cofactor synthesis and CO2 fixation via the Wood-Ljungdahl pathway; also recorded: Tryptophan synthesis, urea degradation, heme and tetrapyrrole biosynthesis, and xylose utilization"
same,impact on bird performance,Ross 708 male broilers,highest impact on performance
